Where “and” joins values, the source holds several entries; their conditions need not be identical. Identical values can stand only once. Entries after “also recorded” stand apart in the source; their conditions may differ.
Experiments:
mCB2R [1] = biological target: T1, mCB2R (Mus musculus, UniProt P47936); experiment: PathHunter β-arrestin recruitment assay; format: cell-based
mCB2R [2] = biological target: T1, mCB2R; experiment: Operational analysis of biased signalling
[3] = Pharmacokinetics, oral administration in mice; format: in vivo, mouse
C57BL6/J mice = experiment: Triad assay: antinociception; format: in vivo, mouse; details: 1-100 mg kg^−1 i.p., cumulative, mice
B2 (h) = biological target: T2, B2 (h) (Homo sapiens, UniProt P30411); experiment: CEREP panel; format: binding; details: read-out: % inhibition B2 (h)
T2 construct: CEREP
T2 sequence (P30411 1-391): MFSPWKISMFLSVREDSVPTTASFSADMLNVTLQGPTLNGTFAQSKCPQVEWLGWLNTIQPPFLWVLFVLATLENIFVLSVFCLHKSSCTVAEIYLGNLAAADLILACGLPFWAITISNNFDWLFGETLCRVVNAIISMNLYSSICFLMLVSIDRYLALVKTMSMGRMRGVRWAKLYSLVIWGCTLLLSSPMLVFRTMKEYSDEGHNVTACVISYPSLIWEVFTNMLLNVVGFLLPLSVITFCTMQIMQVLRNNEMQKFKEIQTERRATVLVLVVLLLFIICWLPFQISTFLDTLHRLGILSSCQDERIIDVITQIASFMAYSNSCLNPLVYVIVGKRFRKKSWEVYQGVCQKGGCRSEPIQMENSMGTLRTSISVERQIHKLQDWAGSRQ

BZD (peripheral) = biological target: T3, BZD (peripheral) (Rattus norvegicus, UniProt P16257); experiment: CEREP panel; format: binding; details: read-out: % inhibition BZD (peripheral)
T3 construct: CEREP

MC4 (h) = biological target: T4, MC4 (h) (Homo sapiens, UniProt P32245); experiment: CEREP panel; format: binding; details: read-out: % inhibition MC4 (h)
T4 construct: CEREP (contract assay)

MT1 (ML1A) (h) = biological target: T5, MT1 (ML1A) (h) (Homo sapiens, UniProt P48039); experiment: CEREP panel; format: binding; details: read-out: % inhibition MT1 (ML1A) (h)
T5 construct: CEREP (contract assay)

NK2 (h) = biological target: T6, NK2 (h) (Homo sapiens, UniProt P21452); experiment: CEREP panel; format: binding; details: read-out: % inhibition NK2 (h)
T6 construct: CEREP (contract assay)
T6 sequence (P21452 1-398): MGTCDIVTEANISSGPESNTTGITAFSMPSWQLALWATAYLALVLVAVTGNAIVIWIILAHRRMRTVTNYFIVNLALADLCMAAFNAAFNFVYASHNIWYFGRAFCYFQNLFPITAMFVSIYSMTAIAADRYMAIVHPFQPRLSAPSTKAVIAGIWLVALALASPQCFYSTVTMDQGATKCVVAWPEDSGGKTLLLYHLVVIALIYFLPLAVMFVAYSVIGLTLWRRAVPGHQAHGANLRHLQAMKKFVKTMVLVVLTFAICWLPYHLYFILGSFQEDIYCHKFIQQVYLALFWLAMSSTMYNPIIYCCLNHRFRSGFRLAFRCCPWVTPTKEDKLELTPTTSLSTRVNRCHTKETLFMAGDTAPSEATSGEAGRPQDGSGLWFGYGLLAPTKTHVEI

NK3 (h) = biological target: T7, NK3 (h) (Homo sapiens, UniProt P29371); experiment: CEREP panel; format: binding; details: read-out: % inhibition NK3 (h)
T7 construct: CEREP (contract assay)
T7 sequence (P29371 1-465): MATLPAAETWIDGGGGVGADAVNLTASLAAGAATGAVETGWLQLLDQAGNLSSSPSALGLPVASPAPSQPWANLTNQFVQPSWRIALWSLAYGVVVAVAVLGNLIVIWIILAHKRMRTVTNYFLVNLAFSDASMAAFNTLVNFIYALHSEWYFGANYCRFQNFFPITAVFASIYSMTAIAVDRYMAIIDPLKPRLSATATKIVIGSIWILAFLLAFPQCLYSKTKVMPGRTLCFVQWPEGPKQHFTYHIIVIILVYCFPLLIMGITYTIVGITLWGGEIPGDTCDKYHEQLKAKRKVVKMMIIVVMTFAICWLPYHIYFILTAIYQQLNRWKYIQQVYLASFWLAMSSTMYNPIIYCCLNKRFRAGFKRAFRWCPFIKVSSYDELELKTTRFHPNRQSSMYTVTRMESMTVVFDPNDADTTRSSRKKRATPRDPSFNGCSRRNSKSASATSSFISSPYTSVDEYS

NOP (ORL1) (h) = biological target: T8, NOP (ORL1) (h) (Homo sapiens, UniProt P41146); experiment: CEREP panel; format: binding; details: read-out: % inhibition NOP (ORL1) (h)
T8 construct: CEREP (contract assay)

P2X = experiment: CEREP panel; format: binding; details: 10 µM
PDGF = experiment: CEREP panel; format: binding; details: 10 µM
physchem [4] = details: pH 6.5, aqueous buffer, thermodynamic from solid
physchem [5] = details: organic solvent or mixture
in vitro [6] = details: human, hepatocytes
in vitro [7] = details: C57BL6, mouse, hepatocytes
[8] = male, C57BL/6J or C57BL/6JRj, mouse, plasma, po, 5 mg/kg

T1 sequence (P47936 whole entry): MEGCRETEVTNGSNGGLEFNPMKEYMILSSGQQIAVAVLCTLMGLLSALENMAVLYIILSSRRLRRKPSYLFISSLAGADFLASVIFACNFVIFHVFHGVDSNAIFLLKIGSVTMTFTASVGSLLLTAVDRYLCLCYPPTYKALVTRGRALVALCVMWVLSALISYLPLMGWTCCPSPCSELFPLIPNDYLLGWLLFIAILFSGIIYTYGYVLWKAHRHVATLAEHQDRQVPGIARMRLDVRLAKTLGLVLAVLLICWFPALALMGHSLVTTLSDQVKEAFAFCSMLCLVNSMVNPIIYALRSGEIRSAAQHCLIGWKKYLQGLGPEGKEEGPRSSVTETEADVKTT
T4 sequence (P32245 whole entry): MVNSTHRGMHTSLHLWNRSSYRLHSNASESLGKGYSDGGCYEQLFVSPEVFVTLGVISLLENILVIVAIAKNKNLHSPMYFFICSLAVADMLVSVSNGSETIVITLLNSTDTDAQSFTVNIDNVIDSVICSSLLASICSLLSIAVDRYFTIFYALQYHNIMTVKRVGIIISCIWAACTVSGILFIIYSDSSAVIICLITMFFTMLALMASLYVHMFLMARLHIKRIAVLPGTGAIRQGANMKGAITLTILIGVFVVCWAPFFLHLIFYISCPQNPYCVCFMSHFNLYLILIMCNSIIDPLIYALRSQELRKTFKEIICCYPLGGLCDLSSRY
T5 sequence (P48039 whole entry): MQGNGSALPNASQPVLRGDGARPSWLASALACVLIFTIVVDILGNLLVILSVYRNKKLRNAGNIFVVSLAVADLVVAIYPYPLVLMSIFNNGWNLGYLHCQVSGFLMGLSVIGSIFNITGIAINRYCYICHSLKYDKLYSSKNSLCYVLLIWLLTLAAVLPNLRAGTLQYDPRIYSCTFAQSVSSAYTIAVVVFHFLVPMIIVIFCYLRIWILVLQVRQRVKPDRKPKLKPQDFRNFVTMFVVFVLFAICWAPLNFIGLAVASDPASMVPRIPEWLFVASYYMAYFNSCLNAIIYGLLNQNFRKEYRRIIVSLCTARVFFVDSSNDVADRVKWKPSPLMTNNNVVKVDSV
T8 sequence (P41146 whole entry): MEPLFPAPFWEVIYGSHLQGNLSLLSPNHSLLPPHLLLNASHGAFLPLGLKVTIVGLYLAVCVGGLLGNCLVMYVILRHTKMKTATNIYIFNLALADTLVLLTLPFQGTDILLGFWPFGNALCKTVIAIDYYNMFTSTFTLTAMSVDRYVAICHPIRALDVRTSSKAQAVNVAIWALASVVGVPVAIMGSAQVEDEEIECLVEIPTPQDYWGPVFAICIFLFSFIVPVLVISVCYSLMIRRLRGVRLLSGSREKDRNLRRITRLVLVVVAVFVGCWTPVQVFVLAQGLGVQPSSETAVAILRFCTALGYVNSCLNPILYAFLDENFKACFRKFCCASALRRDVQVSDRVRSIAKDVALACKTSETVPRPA
T3 sequence (P16257 whole entry): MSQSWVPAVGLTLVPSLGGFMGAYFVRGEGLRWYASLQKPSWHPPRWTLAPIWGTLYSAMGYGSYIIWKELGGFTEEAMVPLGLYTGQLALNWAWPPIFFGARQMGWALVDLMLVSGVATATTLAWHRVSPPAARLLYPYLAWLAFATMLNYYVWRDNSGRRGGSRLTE

SMILES: CCCCCCC(C)(C)c1cc(OC)c([C@@H]2C=C(CO)[C@@H]3C[C@H]2C3(C)C)c(OC)c1 [HU308]
- EC50 (mCB2R [1]): 339 nM
- Emax (mCB2R [1]; read-out: Emax ± SEM β-AR recruitment mCB2R): 69 ± 3%
- GTPγS-cAMP bias factor (BF) (mCB2R [2]): 25.8
- GTPγS-cAMP ΔΔlogR (mCB2R [2]): 1.41 ± 0.27
- LogR GTPγS (mCB2R [2]): 6.77 ± 0.05
- LogR cAMP (mCB2R [2]): 8.07 ± 0.22
- LogR β-AR (mCB2R [2]): 6.22 ± 0.10
- β-AR-GTPγS bias factor (BF) (mCB2R [2]): 0.19
- β-AR-GTPγS ΔΔlogR (mCB2R [2]): -0.72 ± 0.13
- β-AR-cAMP bias factor (BF) (mCB2R [2]): 4.9
- β-AR-cAMP ΔΔlogR (mCB2R [2]): 0.69 ± 0.28
- ΔLogR GTPγS (mCB2R [2]; reference CP55940): -1.04 ± 0.07
- ΔLogR cAMP (mCB2R [2]; reference CP55940): -2.46 ± 0.26
- ΔLogR β-AR (mCB2R [2]; reference CP55940): -1.77 ± 0.12
- RE GTPγS (mCB2R [2]; relative effectiveness): 0.09
- RE cAMP (mCB2R [2]; relative effectiveness): 0.004
- RE β-AR (mCB2R [2]; relative effectiveness): 0.02
- AUC(0-inf) [3, 8]: 298 ng·h/mL
- AUC(0-t) [3, 8]: 253 ng·h/mL
- half-life [3, 8]: 3.3 h
- Cmax ([3]; male, C57BL/6J or C57BL/6JRj, mouse, plasma, po, 5 mg/kg, p.o., read-out: Cmax): 201 ng/mL
- Tmax ([3]; male, C57BL/6J or C57BL/6JRj, mouse, plasma, po, 5 mg/kg, p.o., read-out: Tmax): 0.5 h
- AUCinf/dose ([3]; p.o.): 59.7 kg·ng·h/mL/mg
- antinociception, cannabimimetic effect (C57BL6/J mice): did not produce detectable; also recorded: lacked appreciable pharmacological effects
- inhibition at 10 µM (B2 (h)): -21%
- inhibition at 10 µM (BZD (peripheral)): 12%
- inhibition at 10 µM (MC4 (h)): 1%
- inhibition at 10 µM (MT1 (ML1A) (h)): -5%
- inhibition at 10 µM (NK2 (h)): 68%
- inhibition at 10 µM (NK3 (h)): 13%
- inhibition at 10 µM (NOP (ORL1) (h)): -5%
- % inhibition P2X (P2X): 2%
- % inhibition PDGF (PDGF): -28%
- solubility kinetic (physchem [4]): < 0.75 µg/mL and < 1.8 µM
- solubility (physchem [5]): 2.06 µg/mL and 5 µM
- hepatocyte CLint (in vitro [6]): 8.3 µL/min/1e6 cells
- hepatocyte CLint (in vitro [7]): 4.7 µL/min/1e6 cells

Reference: PMC5216056 (Nature Communications, 2017)
